Data set [1] relates to Monocotyledonous and dicotyledonous weed. The data set is described as follows: Post-emergence test experiment, weed control effect (Table 2). The format is in vivo. Also on record: key to weed control effect, Setaria viridis (level) / weed control effect, Rorippa indica (level) / weed control effect, Abutilon theophrasti (level) / weed control effect, Echinochloa crus-galli (level) / weed control effect, Digitaria sanguinalis (level): Level 10: completely dead; Level 9: above 90% growth inhibition rate; Level 8: above 80% growth inhibition rate; Level 7: above 70% growth inhibition rate; Level 6: above 60% growth inhibition rate; Level 5: above 50% growth inhibition rate; Level 4: above 30% growth inhibition rate; Level 3: above 20% growth inhibition rate; Level 2: above 10% growth inhibition rate; Level 1: above 1-10% growth inhibition rate; Level 0: no effect. As to conditions: 3 weeks after spraying, greenhouse. As for the experimental part:
(§1) Post-emergence test experiment: Monocotyledonous and dicotyledonous weed seeds and main crop seeds (i.e. wheat, corn, rice, soybean, cotton, oilseed, millet and sorghum.) were put into a plastic pot loaded with soil. Then covered with 0.5-2 cm soil, the seeds were allowed to grow in good greenhouse environment. The test plants were treated at 2-3 leaf stage 2-3 weeks after sowing. The test compounds of the invention were dissolved with acetone respectively, then added with 80 tween and diluted by certain amount of water to certain concentration. The solution was sprayed to the plants with a sprayer. Then the plants were cultured for 3 weeks in the greenhouse.

Data set [2] relates to main crop (wheat, corn, rice, soybean, cotton, oilseed, millet and sorghum). The data set is described as follows: Post-emergence test experiment, main crops (Table 2). The format is in vivo. The arrangement: key: Level 10: completely dead; Level 9: above 90% growth inhibition rate; Level 8: above 80% growth inhibition rate; Level 7: above 70% growth inhibition rate; Level 6: above 60% growth inhibition rate; Level 5: above 50% growth inhibition rate; Level 4: above 30% growth inhibition rate; Level 3: above 20% growth inhibition rate; Level 2: above 10% growth inhibition rate; Level 1: above 1-10% growth inhibition rate; Level 0: no effect. As to conditions: 3 weeks after spraying, greenhouse. Here is the method: as §1

With `Cc1ccn(Cc2c(S(C)(=O)=O)ccc(C(=O)c3c(C)nn(C)c3OC(=O)c3cnn(C)c3)c2Cl)n1` [Compound 15], in data set [1] (120 g/ha), the “weed control effect, Abutilon theophrasti (level)” value is reported as 9 (Level 9: above 90% growth inhibition rate); the “weed control effect, Bidens pilosa (level)” value is reported as 8 (Level 8: above 80% growth inhibition rate); the “weed control effect, Digitaria sanguinalis (level)” value is 4 (Level 4: above 30% growth inhibition rate); the “weed control effect, Echinochloa crus-galli (level)” value worked out at 10. In data set [1] (120 g/ha), the “weed control effect, Rorippa indica (level)” value came out at 10 and the “weed control effect, Setaria viridis (level)” value is 5 (Level 5: above 50% growth inhibition rate). For the same molecule, in data set [2] (120 g/ha), the “effect on crop, corn (level)” value was found to be 0; the “effect on crop, rice (level)” value is reported as 1 (Level 1: above 1-10% growth inhibition rate); the “effect on crop, wheat (level)” value was determined as 0.
In the case of `Cc1nn(C)c(OC(=O)c2cnn(C)c2)c1C(=O)c1ccc(S(C)(=O)=O)c(Cn2cccn2)c1Cl` [Compound 16], in data set [1] (60 g/ha), the “weed control effect, Abutilon theophrasti (level)” value came to 10; the “weed control effect, Bidens pilosa (level)” value was 8 (Level 8: above 80% growth inhibition rate); the “weed control effect, Digitaria sanguinalis (level)” value was determined as 10; the “weed control effect, Echinochloa crus-galli (level)” value is recorded as 10. Besides, in data set [1] (60 g/ha), the “weed control effect, Rorippa indica (level)” value was found to be 10 and the “weed control effect, Setaria viridis (level)” value is 8 (Level 8: above 80% growth inhibition rate). For the same molecule, in data set [2] (60 g/ha), the “effect on crop, corn (level)” value amounted to 0; the “effect on crop, rice (level)” value is recorded as 1 (Level 1: above 1-10% growth inhibition rate); the “effect on crop, wheat (level)” value is reported as 1 (Level 1: above 1-10% growth inhibition rate).
Turning to `Cc1cnn(Cc2c(S(C)(=O)=O)ccc(C(=O)c3cnn(C)c3OC(=O)c3cnn(C)c3)c2Cl)c1` [Compound 17], in data set [1] (120 g/ha), the “weed control effect, Abutilon theophrasti (level)” value was 6 (Level 6: above 60% growth inhibition rate); the “weed control effect, Bidens pilosa (level)” value is 6 (Level 6: above 60% growth inhibition rate); the “weed control effect, Digitaria sanguinalis (level)” value is on record as 0; the “weed control effect, Echinochloa crus-galli (level)” value is on record as 10. Besides, in data set [1] (120 g/ha), the “weed control effect, Rorippa indica (level)” value is recorded as 4 (Level 4: above 30% growth inhibition rate) and the “weed control effect, Setaria viridis (level)” value was 1 (Level 1: above 1-10% growth inhibition rate). Also, in data set [2] (120 g/ha), the “effect on crop, corn (level)” value came to 0; the “effect on crop, rice (level)” value is listed as 0; the “effect on crop, wheat (level)” value amounted to 0.
Take `Cn1cc(C(=O)Oc2c(C(=O)c3ccc(S(C)(=O)=O)c(Cn4cc(Cl)cn4)c3Cl)c(C3CC3)nn2C)cn1` [Compound 18]: in data set [1] (120 g/ha), the “weed control effect, Abutilon theophrasti (level)” value is given as 9 (Level 9: above 90% growth inhibition rate); the “weed control effect, Bidens pilosa (level)” value is 8 (Level 8: above 80% growth inhibition rate); the “weed control effect, Digitaria sanguinalis (level)” value is recorded as 4 (Level 4: above 30% growth inhibition rate); the “weed control effect, Echinochloa crus-galli (level)” value was 10. In data set [1] (120 g/ha), the “weed control effect, Rorippa indica (level)” value is 10 and the “weed control effect, Setaria viridis (level)” value was 5 (Level 5: above 50% growth inhibition rate). In data set [2] (120 g/ha), the “effect on crop, corn (level)” value is 0; the “effect on crop, rice (level)” value was 1 (Level 1: above 1-10% growth inhibition rate); the “effect on crop, wheat (level)” value is given as 0.
On to `Cn1cc(C(=O)Oc2c(C(=O)c3ccc(S(C)(=O)=O)c(Cn4cccn4)c3Cl)c(C3CC3)nn2C)cn1` [Compound 19], for which, in data set [1] (60 g/ha), the “weed control effect, Abutilon theophrasti (level)” value is on record as 10; the “weed control effect, Bidens pilosa (level)” value is recorded as 8 (Level 8: above 80% growth inhibition rate); the “weed control effect, Digitaria sanguinalis (level)” value came out at 10; the “weed control effect, Echinochloa crus-galli (level)” value is 10. In data set [1] (60 g/ha), the “weed control effect, Rorippa indica (level)” value amounted to 10 and the “weed control effect, Setaria viridis (level)” value is recorded as 8 (Level 8: above 80% growth inhibition rate). Moreover, in data set [2] (60 g/ha), the “effect on crop, corn (level)” value was determined as 0; the “effect on crop, rice (level)” value is 1 (Level 1: above 1-10% growth inhibition rate); the “effect on crop, wheat (level)” value was determined as 0.
Regarding `Cc1cc(C)n(Cc2c(S(C)(=O)=O)ccc(C(=O)c3c(C4CC4)nn(C)c3OC(=O)c3cnn(C)c3)c2Cl)n1` [Compound 20], in data set [1] (120 g/ha), the “weed control effect, Abutilon theophrasti (level)” value is recorded as 6 (Level 6: above 60% growth inhibition rate); the “weed control effect, Bidens pilosa (level)” value is on record as 6 (Level 6: above 60% growth inhibition rate); the “weed control effect, Digitaria sanguinalis (level)” value is listed as 1 (Level 1: above 1-10% growth inhibition rate); the “weed control effect, Echinochloa crus-galli (level)” value is 10. For the same molecule, in data set [1] (120 g/ha), the “weed control effect, Rorippa indica (level)” value was 4 (Level 4: above 30% growth inhibition rate) and the “weed control effect, Setaria viridis (level)” value is 5 (Level 5: above 50% growth inhibition rate). In addition, in data set [2] (120 g/ha), the “effect on crop, corn (level)” value was found to be 0; the “effect on crop, rice (level)” value is listed as 0; the “effect on crop, wheat (level)” value is 0.
With `Cc1ccn(Cc2c(S(C)(=O)=O)ccc(C(=O)c3c(C4CC4)nn(C)c3OC(=O)c3cnn(C)c3)c2Cl)n1` [Compound 21], in data set [1] (120 g/ha), the “weed control effect, Abutilon theophrasti (level)” value is given as 6 (Level 6: above 60% growth inhibition rate); the “weed control effect, Bidens pilosa (level)” value is recorded as 6 (Level 6: above 60% growth inhibition rate); the “weed control effect, Digitaria sanguinalis (level)” value is on record as 1 (Level 1: above 1-10% growth inhibition rate); the “weed control effect, Echinochloa crus-galli (level)” value turned out to be 10. In data set [1] (120 g/ha), the “weed control effect, Rorippa indica (level)” value is given as 4 (Level 4: above 30% growth inhibition rate) and the “weed control effect, Setaria viridis (level)” value is listed as 3 (Level 3: above 20% growth inhibition rate). In addition, in data set [2] (120 g/ha), the “effect on crop, corn (level)” value came to 0; the “effect on crop, rice (level)” value was 0; the “effect on crop, wheat (level)” value is 0.
As to `Cc1cnn(Cc2c(S(C)(=O)=O)ccc(C(=O)c3c(C4CC4)nn(C)c3OC(=O)c3cnn(C)c3)c2Cl)c1` [Compound 22], in data set [1] (120 g/ha), the “weed control effect, Abutilon theophrasti (level)” value is on record as 6 (Level 6: above 60% growth inhibition rate); the “weed control effect, Bidens pilosa (level)” value was 6 (Level 6: above 60% growth inhibition rate); the “weed control effect, Digitaria sanguinalis (level)” value is given as 1 (Level 1: above 1-10% growth inhibition rate); the “weed control effect, Echinochloa crus-galli (level)” value was 10. In data set [1] (120 g/ha), the “weed control effect, Rorippa indica (level)” value is recorded as 4 (Level 4: above 30% growth inhibition rate) and the “weed control effect, Setaria viridis (level)” value is 3 (Level 3: above 20% growth inhibition rate). In addition, in data set [2] (120 g/ha), the “effect on crop, corn (level)” value stood at 0; the “effect on crop, rice (level)” value is given as 0; the “effect on crop, wheat (level)” value worked out at 0.
For `CCOc1c(C(=O)Oc2c(C(=O)c3ccc(S(C)(=O)=O)c(Cn4cc(C)cn4)c3Cl)cnn2C)cnn1C` [Compound 23], in data set [1] (120 g/ha), the “weed control effect, Abutilon theophrasti (level)” value is on record as 6 (Level 6: above 60% growth inhibition rate); the “weed control effect, Bidens pilosa (level)” value is listed as 6 (Level 6: above 60% growth inhibition rate); the “weed control effect, Digitaria sanguinalis (level)” value was 1 (Level 1: above 1-10% growth inhibition rate); the “weed control effect, Echinochloa crus-galli (level)” value was 10. In data set [1] (120 g/ha), the “weed control effect, Rorippa indica (level)” value is listed as 4 (Level 4: above 30% growth inhibition rate) and the “weed control effect, Setaria viridis (level)” value is 3 (Level 3: above 20% growth inhibition rate). In data set [2] (120 g/ha), the “effect on crop, corn (level)” value was 0; the “effect on crop, rice (level)” value is reported as 0; the “effect on crop, wheat (level)” value is given as 0.
Take `Cc1nn(C)cc1C(=O)Oc1c(C(=O)c2ccc(S(C)(=O)=O)c(COCC(F)F)c2Cl)c(C)nn1C` [Compound 25]: in data set [1] (30 g/ha), the “weed control effect, Abutilon theophrasti (level)” value is listed as 7 (Level 7: above 70% growth inhibition rate); the “weed control effect, Bidens pilosa (level)” value is listed as 7 (Level 7: above 70% growth inhibition rate); the “weed control effect, Digitaria sanguinalis (level)” value was determined as 10; the “weed control effect, Echinochloa crus-galli (level)” value was found to be 10. In data set [1] (30 g/ha), the “weed control effect, Rorippa indica (level)” value is given as 5 (Level 5: above 50% growth inhibition rate) and the “weed control effect, Setaria viridis (level)” value is on record as 9 (Level 9: above 90% growth inhibition rate). In data set [2] (30 g/ha), the “effect on crop, corn (level)” value is listed as 0; the “effect on crop, rice (level)” value is 6 (Level 6: above 60% growth inhibition rate); the “effect on crop, wheat (level)” value was determined as 0.
With `CCOCc1c(S(C)(=O)=O)ccc(C(=O)c2c(C)nn(C)c2OC(=O)c2cn(C)nc2C)c1Cl` [Compound 27], in data set [1] (30 g/ha), the “weed control effect, Abutilon theophrasti (level)” value is given as 7 (Level 7: above 70% growth inhibition rate); the “weed control effect, Bidens pilosa (level)” value is listed as 7 (Level 7: above 70% growth inhibition rate); the “weed control effect, Digitaria sanguinalis (level)” value was 7 (Level 7: above 70% growth inhibition rate); the “weed control effect, Echinochloa crus-galli (level)” value is 9 (Level 9: above 90% growth inhibition rate). Besides, in data set [1] (30 g/ha), the “weed control effect, Rorippa indica (level)” value was 5 (Level 5: above 50% growth inhibition rate) and the “weed control effect, Setaria viridis (level)” value is recorded as 6 (Level 6: above 60% growth inhibition rate). In data set [2] (30 g/ha), the “effect on crop, corn (level)” value is 0; the “effect on crop, rice (level)” value is reported as 6 (Level 6: above 60% growth inhibition rate); the “effect on crop, wheat (level)” value came to 0.

The record behind these values is patent publication US10556888B2, “Pyrazole compounds or salts thereof, preparation methods therefor, herbicidal compositions and use thereof” (QINGDAO KINGAGROOT CHEMICAL COMPOUNDS CO., LTD, priority 2015, dated 2020).
